# Measured values from PubChem BioAssay (NCI).
#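 Dose response: 5 concentrations. Exposure: 48 h. Format: 96-well plates. Endpoint: linear interpolation; highest concentration if not reached. Definition used: TGI = concentration required for complete inhibition of growth.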
# Legend:
# Assay in all cases: NCI-60 cell line screen, 48 h
# 786-0 renal = tested on: 786-0 renal
# A498 renal = tested on: A498 renal
# A549 NSCLC = tested on: A549 NSCLC
# ACHN renal = tested on: ACHN renal
# BT-549 breast = tested on: BT-549 breast
# CAKI-1 renal = tested on: CAKI-1 renal
# CCRF-CEM leukemia = tested on: CCRF-CEM leukemia
# COLO 205 colon = tested on: COLO 205 colon
# DU-145 prostate = tested on: DU-145 prostate
# EKVX NSCLC = tested on: EKVX NSCLC
# HCC-2998 colon = tested on: HCC-2998 colon
# HCT-116 colon = tested on: HCT-116 colon
# HCT-15 colon = tested on: HCT-15 colon
# HL-60(TB) leukemia = tested on: HL-60(TB) leukemia
# HOP-62 NSCLC = tested on: HOP-62 NSCLC
# HOP-92 NSCLC = tested on: HOP-92 NSCLC
# HS 578T breast = tested on: HS 578T breast
# HT29 colon = tested on: HT29 colon
# IGROV1 ovarian = tested on: IGROV1 ovarian
# K-562 leukemia = tested on: K-562 leukemia
# KM12 colon = tested on: KM12 colon
# LOX IMVI melanoma = tested on: LOX IMVI melanoma
# M14 melanoma = tested on: M14 melanoma
# MALME-3M melanoma = tested on: MALME-3M melanoma
# MCF7 breast = tested on: MCF7 breast
# MDA-MB-231 breast = tested on: MDA-MB-231 breast
# MDA-MB-435 = tested on: MDA-MB-435
# MDA-N = tested on: MDA-N
# MOLT-4 leukemia = tested on: MOLT-4 leukemia
# NCI-H226 lung = tested on: NCI-H226 lung
# NCI-H23 lung = tested on: NCI-H23 lung
# NCI-H460 lung = tested on: NCI-H460 lung
# NCI-H522 lung = tested on: NCI-H522 lung
# NCI/ADR-RES ovarian = tested on: NCI/ADR-RES ovarian
# OVCAR-3 ovarian = tested on: OVCAR-3 ovarian
# OVCAR-4 ovarian = tested on: OVCAR-4 ovarian
# OVCAR-5 ovarian = tested on: OVCAR-5 ovarian
# OVCAR-8 ovarian = tested on: OVCAR-8 ovarian
# PC-3 prostate = tested on: PC-3 prostate
# RPMI-8226 leukemia = tested on: RPMI-8226 leukemia
# RXF 393 renal = tested on: RXF 393 renal
# SF-268 CNS = tested on: SF-268 CNS
# SF-295 CNS = tested on: SF-295 CNS
# SF-539 CNS = tested on: SF-539 CNS
# SK-MEL-2 melanoma = tested on: SK-MEL-2 melanoma
# SK-MEL-28 melanoma = tested on: SK-MEL-28 melanoma
# SK-MEL-5 melanoma = tested on: SK-MEL-5 melanoma
# SK-OV-3 ovarian = tested on: SK-OV-3 ovarian
# SN12C renal = tested on: SN12C renal
# SNB-19 CNS = tested on: SNB-19 CNS
# SNB-75 CNS = tested on: SNB-75 CNS
# SR leukemia = tested on: SR leukemia
# SW-620 colon = tested on: SW-620 colon
# T-47D breast = tested on: T-47D breast
# TK-10 renal = tested on: TK-10 renal
# U251 CNS = tested on: U251 CNS
# UACC-257 melanoma = tested on: UACC-257 melanoma
# UACC-62 melanoma = tested on: UACC-62 melanoma
# UO-31 renal = tested on: UO-31 renal
smiles,measurement,setting,value
Cc1nc2sc(C(=O)c3ccc(Cl)cc3)c(N)c2c(-c2ccccc2Cl)c1C(=O)Nc1ccccc1,TGI,786-0 renal,27.6 µM
same,TGI,A498 renal,48 µM
same,TGI,A549 NSCLC,31.4 µM
same,TGI,ACHN renal,67.7 µM
same,TGI,BT-549 breast,48 µM
same,TGI,CAKI-1 renal,36.8 µM
same,TGI,CCRF-CEM leukemia,19.9 µM
same,TGI,COLO 205 colon,37.4 µM
same,TGI,DU-145 prostate,61 µM
same,TGI,EKVX NSCLC,59 µM
same,TGI,HCC-2998 colon,59.9 µM
same,TGI,HCT-116 colon,26.8 µM
same,TGI,HCT-15 colon,43.5 µM
same,TGI,HL-60(TB) leukemia,> 86.5 µM
same,TGI,HOP-62 NSCLC,37 µM
same,TGI,HOP-92 NSCLC,15.9 µM
same,TGI,HS 578T breast,48.7 µM
same,TGI,HT29 colon,31.3 µM
same,TGI,IGROV1 ovarian,> 70.5 µM
same,TGI,K-562 leukemia,> 51.8 µM
same,TGI,KM12 colon,50 µM
same,TGI,LOX IMVI melanoma,31.7 µM
same,TGI,M14 melanoma,25.8 µM
same,TGI,MALME-3M melanoma,29.2 µM
same,TGI,MCF7 breast,53.8 µM
same,TGI,MDA-MB-231 breast,34.6 µM
same,TGI,MDA-MB-435,33.1 µM
same,TGI,MDA-N,29.5 µM
same,TGI,MOLT-4 leukemia,51.5 µM
same,TGI,NCI-H226 lung,62.1 µM
same,TGI,NCI-H23 lung,38.9 µM
same,TGI,NCI-H460 lung,28.8 µM
same,TGI,NCI-H522 lung,25.1 µM
same,TGI,NCI/ADR-RES ovarian,60 µM
same,TGI,OVCAR-3 ovarian,33.9 µM
same,TGI,OVCAR-4 ovarian,41 µM
same,TGI,OVCAR-5 ovarian,38.6 µM
same,TGI,OVCAR-8 ovarian,47.1 µM
same,TGI,PC-3 prostate,47 µM
same,TGI,RPMI-8226 leukemia,62.2 µM
same,TGI,RXF 393 renal,31.3 µM
same,TGI,SF-268 CNS,> 94.9 µM
same,TGI,SF-295 CNS,47.9 µM
same,TGI,SF-539 CNS,30.5 µM
same,TGI,SK-MEL-2 melanoma,32.8 µM
same,TGI,SK-MEL-28 melanoma,27.4 µM
same,TGI,SK-MEL-5 melanoma,36.6 µM
same,TGI,SK-OV-3 ovarian,31.3 µM
same,TGI,SN12C renal,42.1 µM
same,TGI,SNB-19 CNS,71.2 µM
same,TGI,SNB-75 CNS,29.7 µM
same,TGI,SR leukemia,58.2 µM
same,TGI,SW-620 colon,29.4 µM
same,TGI,T-47D breast,19 µM
same,TGI,TK-10 renal,39.3 µM
same,TGI,U251 CNS,37.4 µM
same,TGI,UACC-257 melanoma,61.8 µM
same,TGI,UACC-62 melanoma,29.6 µM
same,TGI,UO-31 renal,51.1 µM
